Series [1] concerns PKC. Conditions: cited from earlier work.
In series [2] the test system is sAPP secretion, AD fibroblasts. The settings on record: benzolactam-treated cells; cited from earlier work.
The subject of series [3] is sAPPα secretion, AD cell line AG06848. Nature of the series: sAPPα secretion immunoblot, AD fibroblasts. In kind it is cell-based, human. The method, then:
Cultured skin fibroblasts were obtained from the Coriell Cell Repositories and grown using the general guidelines established for their culture with slight modifications (Cristofalo & Carpentier, 1988; Hirashima et al., 1996). The culture medium in which cells were grown was Dulbecco's modified Eagle's medium (GIBCO) supplemented with 10% fetal calf serum (Biofluids, Inc.). Fibroblasts from control cell lines (AC), cases AG07141 and AG06241, and a familial AD (FAD) case (AG06848) were utilized.
Cells grown to confluence in 6 cm Petri dishes for 5-7 days. On the day of the experiment, medium was replaced with DMEM without serum and left undisturbed for 2 h. Upon completion of the 2 hour serum deprivation; treatment was achieved by direct application to the medium of Bryo, BL and DMSO at the appropriate concentrations. (0.1 and 0.01 nM for bryostatin; 0.1 nM, 0.1 μM, and 1 μM BL). DMSO was less than 1% in all cases. In most cases, medium was collected and processed after 3 hours of treatment for sAPP secretion. Other time points were also used to establish a time course of secretion.
sAPP—Determinations/Measurements of sAPPα
The concentration of secreted APP was measured using conventional immunoblotting techniques, with minor modifications the protocol. Precipitated protein extracts from each dish/treatment were loaded to freshly prepared 10% acrylamide Tris-HCl minigels and separated by SDPAGE. The volume of sample loaded was corrected for total cell protein per dish. Proteins were then electrophoretically transferred to PVDF membranes. Membranes were saturated with 5% non-fat dry milk to block non-specific binding. Blocked membranes were incubated overnight at 4° C. with the commercially available antibody 6E10 (1:500), which recognizes sAPP-alpha in the conditioned medium (SENETEK). After washing, the membranes were incubated at room temperature with horseradish peroxidase conjugated anti-mouse IgG secondary antibody (Jackson's Laboratories). The signal was then detected using enhanced chemiluminescence followed by exposure of Hyperfilm ECL (Amersham). The band intensities were quantified by densitometry using a BioRad GS-800 calibrated scanning densitometer and Multianalyst software (BioRad).

The subject of series [4] is sAPP secretion, control fibroblasts. The settings on record: cited from earlier work.
For series [5], the system named is Transgenic mice carrying the V7171 mutation. Description: Transgenic mice carrying the V7171 APP mutation, APP species in brain and health. Conditions: for deaths: 5-6 months old animals. In kind it is in vivo. The method, then:
Transgenic mice carrying the V7171 mutation were treated with BL (1 mg/kg, i.p.; daily) from […] of age (after weaning) for 17 weeks (n=4). The control group (n=4) received vehicle alone (Tween 20 1%, DMSO 25%, 74% PBS). Another experimental group consisted of 5-6 months old animals treated for 7 weeks. Subgroups of these animals were treated with BL 1 mg/kg, daily (n=5); BL 10 mg/kg, daily (n=3; due to two deaths); BL 10 mg/kg, weekly (n=4; one death), LQ12 10 mg/kg, daily (n=5); and LQ12 10 mg/kg, weekly (n=5). Five additional animals received vehicle alone for the same period. After completion of the treatment, animals were euthanized according to K.U.L. (Belgium) guidelines. Brains were removed and prepared for biochemical analyses of APP species.
Immunoblot analysis. The biochemical analysis of intermediates of APP metabolism has been described elsewhere by Dewachter et al. (Aging increased amyloid peptide and caused amyloid plaques in brain of old APP/V7171 transgenic mice by a different mechanism than mutant presenilinl. J. Neurosci. 2000; 20:6452-8.). Briefly, brains were homogenized in 6.5 vol. of ice-cold buffer containing 20 mm Tris-HCl, pH 8.5, and a mixture of proteinase inhibitors (Roche, Darmstadt, Germany). After centrifugation at 135,000×g at 4° C. for 1 hr, the supernatant was centrifuged again for 2 hr at 200,000×g before analysis of soluble amyloid peptides by specified ELISA. The pellets from the first centrifugation were resuspended in TBS containing 2% Triton X-100, 2% Nonidet P40 and proteinase inhibitors and centrifuged at 100.000×g at 4° C. for 1 hr. This protein fraction was used for analysis of membrane-bound APP. Western blotting of membrane bound APP was performed on this protein fraction containing membrane-bound proteins, with monoclonal antibody 8E5. Total secreted APP and a-secretase cleaved secreted APP-a were detected by Western blotting analysis on the supernatant of the first centrifugation, with monoclonal antibody 8E5 and monoclonal antibody JRF14, respectively. Proteins were denatured and reduced in sample buffer containing a final concentration of 2% SDS, 1% 2-ME and separated on 8% TRIS Glycine gels (Novex, San Diego, Calif.). After incubation with appropriate secondary antibodies, all Western blots were developed with the ECL detection system and photographically recorded. Application of a series of diluted sample allowed quantitation. Densitometric scanning of films and normalization were performed using a flatbed optical density scanner and dedicated software for analysis and measurement (Image Master; Pharmacia, Uppsala, Sweden).
ELISA of amyloid peptides. Protein extracts were applied on reversed-phase columns (C18-Sep-pack cartridges; Waters Corporation, Milford, Mass.) and washed with increasing concentrations of acetonitrile (5, 25, and 50%) containing 0.1% trifluoroacetic acid. The last fraction contained the amyloid peptides and was dried in vacuo overnight and dissolved for measurements in ELISA. Sandwich ELISA for human […] peptides was performed using the capture antiserum JRF/cAβ40/10 and 21F12, respectively, and they were developed with monoclonal antibodies JRFcAβ/tot/14 hrpo and 3D6, respectively (Vanderstichele H, Van Kerschaver E, Hese C, Davidsson P, Buyse M A, Andreansen N, Minthon L, Wallin A, Blennow K, Vanmechelen E. Standardization of measurements of beta-amyloid (1-42) in cerebrospinal fluid and plasma. Amyloid 2000; 7: 245-258).
Standard general health assessment and open field were conducted in all animals prior to the biochemical assessments. In addition, a semi-quantitative ad hoc score was devised to measure abdominal contractions that followed the injections (+=weak, <2 min; […]).

Series [6] concerns the target T1, PKCε (Homo sapiens, UniProt Q02156).
T1 sequence (Q02156 1-737): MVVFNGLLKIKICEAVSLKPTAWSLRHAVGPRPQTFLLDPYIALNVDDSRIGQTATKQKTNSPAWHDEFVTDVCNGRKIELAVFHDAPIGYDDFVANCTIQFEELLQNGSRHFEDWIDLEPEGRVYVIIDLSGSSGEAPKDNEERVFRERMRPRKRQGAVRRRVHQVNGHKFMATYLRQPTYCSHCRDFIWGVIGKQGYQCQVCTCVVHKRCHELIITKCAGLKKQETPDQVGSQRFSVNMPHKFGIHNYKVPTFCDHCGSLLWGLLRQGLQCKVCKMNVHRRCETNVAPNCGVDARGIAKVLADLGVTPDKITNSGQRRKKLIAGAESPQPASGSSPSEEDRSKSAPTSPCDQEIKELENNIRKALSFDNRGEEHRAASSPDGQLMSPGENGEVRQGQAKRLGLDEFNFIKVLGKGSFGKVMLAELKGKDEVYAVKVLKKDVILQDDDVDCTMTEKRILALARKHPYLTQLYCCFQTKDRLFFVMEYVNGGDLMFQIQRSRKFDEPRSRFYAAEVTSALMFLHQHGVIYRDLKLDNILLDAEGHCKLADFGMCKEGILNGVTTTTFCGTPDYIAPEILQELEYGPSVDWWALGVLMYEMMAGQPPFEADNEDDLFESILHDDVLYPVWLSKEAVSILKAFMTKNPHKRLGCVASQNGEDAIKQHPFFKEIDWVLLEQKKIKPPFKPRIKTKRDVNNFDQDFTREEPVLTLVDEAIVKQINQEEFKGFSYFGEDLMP
Conditions: cited from earlier work.

Series [7] deals with PKC. The settings on record: competes with [3H]phorbol dibutyrate; read-out: Ki for binding; cited from earlier work.
The subject of series [8] is squamous cell carcinoma and melanoma. Conditions: used topically; cited from earlier work.
Series [9] concerns NCI 60 cell line screen. Conditions: cited from earlier work.
Series [10] deals with protein kinase C. Conditions: (−)-enantiomer; cited from earlier work.
[11] abbreviates: 1 mg/kg i.p. daily from 3 weeks of age for 17 weeks.
Setting [12] is: 1 mg/kg i.p. daily from 3 weeks of age for 17 weeks, vs vehicle.
Setting [13] is: 6 months old animals, 7 weeks, 10 mg/kg daily.
Setting [14] is: 6 months old animals, 7 weeks, 10 mg/kg weekly.
The mark [15] stands for this setting: A-ring bryologs, read-out: affinity for PKC.

“Also recorded” adds a separate entry of the source. Read-outs that look alike come from different tables or passages of the source.

Regarding `CCCCCCCC(=O)O[C@H]1/C(=C/C(=O)OC)C[C@H]2C[C@H](CO)OC(=O)C[C@H](O)CCOCC[C@@H]3CCO[C@H](/C=C/C(C)(C)[C@]1(O)O2)O3` [Analog 2], in series [1], the “affinity for PKC, in words” value is on record as “high affinity”. Moreover, in series [1] (read-out: PKC Affin), the Ki was 6.5 nM.

Take `CCCCCCCCC#Cc1ccc2c(c1)C[C@@H](CO)NC(=O)[C@H](C(C)C)N2C` [BL, benzolactam]: in series [2], the “sAPP secretion in AD cells compared to control fibroblasts” value is “slightly higher”. In addition, in series [3] (AD cell line AG06848, 0.1 nM, three hours of treatment, relative to DMSO), the “secretion of sAPPα” value is recorded as “no real impact on secretion”. In addition, in [4], the “concentration giving significant increases of sAPP secretion” value was 10 µM. Further, the APP membrane-bound result in series [5] (setting [11]) is reported as “no differences”. Moreover, the “amount of Aβ42” value in series [5] (setting [11]) is reported as “no differences”. In series [5] (setting [11]), the “total secreted sAPP (sAPPα+sAPPβ)” value is “no differences”. Moreover, the Aβ40 in brain result in [5] (setting [12]) was “concomitant and proportional reduction”; in series [5] (setting [13]), “increase”; in series [5] (setting [14]) it was “slight decrease”. The sAPPα in brain result is reported as “significant increase” in series [5] (setting [12]); “no effect” in [5] (6 months old animals, 7 weeks, 1 mg/kg daily); “slight increase” in series [5] (setting [13]); “slight increase” in series [5] (setting [14]). Moreover, the general health result in series [5] (1 mg/kg i.p. daily, 17 weeks) is reported as “no differences in general health”. Also, the “intensity of abdominal contractions after injection” value in series [5] (1 mg/kg i.p. daily, 17 weeks, vs vehicle group) is “somewhat elevated”. For the same compound, the deaths entry in [5] (7 weeks, 10 mg/kg daily) is given as “two deaths”; in series [5] (7 weeks, 10 mg/kg weekly), “one death”.

Take `CCCCCC1CC1CC1CC1CCCCCCCC(=O)O` (stereo not shown) [DCP-LA, 2-[(2-pentylcyclopropyl)methyl]cyclopropaneoctanoic acid]: in [6], the “concentration of maximal effect on PKCε” value was 100 nM.

Take `CC1=C[C@]23C(=O)[C@@H](C=C(COC(=O)c4ccccc4)[C@@H](O)[C@]2(O)[C@H]1OC(=O)c1ccccc1)[C@H]1[C@@H](C[C@H]3C)C1(C)C` [Ingenol 3,20-dibenzoate]: the Ki in series [7] was 240 nM.

For the compound `C/C=C(/C)C(=O)O[C@H]1C(C)=C[C@]23C(=O)[C@@H](C=C(CO)[C@@H](O)[C@]12O)[C@H]1[C@@H](C[C@H]3C)C1(C)C` [Ingenol-3-angelate], the antitumor activity entry in series [8] is listed as “possesses antitumor activity”.

For `CC1=CC[C@H](C)C(C)(C)[C@@H]1/C=C/C(C)=C/CC[C@@]1(CO)[C@H](CCCO)/C(=C(/C)C=O)CC[C@]1(C)O` [Iripallidal], in [9], the “G150 (concentration required to inhibit growth by 50%)” value is listed as “micromolar to nanomolar range”.

For `CCCCCCCC(=O)OC1C(=CC(=O)OC)CC2CC(CO)OC(=O)CC(O)CCOC(C(C)(C)C)CC3CCOC(C=CC(C)(C)C1(O)O2)O3` (stereo not shown) [bryolog 3], the Ki in series [1] (setting [15]) was 6.5 nM.

Take `CCCCCCCC(=O)OC1C(=CC(=O)OC)CC2CC(CO)OC(=O)CC(O)CCOC(c3ccccc3)CC3CCOC(C=CC(C)(C)C1(O)O2)O3` (stereo not shown) [bryolog 4]: the Ki in [1] (setting [15]) was 2.3 nM.

`CCCCCCCC(=O)OC1C(=CC(=O)OC)CC2CC(CO)OC(=O)CC(O)CCOC(CCCc3ccc(Br)cc3)CC3CCOC(C=CC(C)(C)C1(O)O2)O3` (stereo not shown) [bryolog 5]: in series [1] (setting [15]), the Ki is 1.9 nM.

As a reminder, the EC50 is the concentration at which the effect is half-maximal. In the case of `CCCCCCCCc1ccc2c3c(c[nH]c13)C[C@@H](CO)NC(=O)[C@H](C(C)C)N2C` [octylindolactam V, Octylindolactam V], in series [10], the EC50 was 29 nM.

As for `CN[C@@H]1C[C@H]2O[C@@](C)([C@@H]1OC)n1c3ccccc3c3c4c(c5c6ccccc6n2c5c31)C(=O)NC4` [staurosporin], in series [3] (100 nM pre-treatment, bryostatin 0.1 nM), the “effect of pre-treatment on bryostatin-induced sAPPα secretion” value is listed as “abolished the effects of 0.1 nM bryostatin; also recorded: completely abolished the effect”.

(Values after patent US20090030055A1, “PKC activation as a means for enhancing s[sequence] secretion and improving cognition using bryostatin type compounds” (priority 2002, published 2009).)
